{"source": "patent US20210340142A1", "about": "“SALT FORM AND CRYSTAL FORM OF NOVEL AZATRICYCLIC COMPOUND AND USE THEREOF” (BETTA PHARMACEUTICALS CO., LTD, priority 2018, published 2021)", "key": {"[1]": {"assay": "Hygroscopicity assessment by dynamic vapor sorption (DVS)", "assay_type": "physicochemical", "conditions": "weight change between 0% RH to 80% RH, 25° C.", "method": "The hygroscopicity of the sample (the sample is a variety of crystal forms shown in Table 26) was tested using dynamic vapor sorption (DVS) instrument, and the water uptake of the sample at 0% RH (relative humidity) to 80% RH was tested."}, "[2]": {"assay": "Stability assessment (influencing factors, 14 days; XRD, TGA, HPLC)", "assay_type": "physicochemical", "conditions": "for Crystalline form (XRD) / Decrease value of the main ingredient content (HPLC) / Weight loss (TGA): 14th day", "method": "Samples and preparation of experimental: An appropriate amount of maleate salt crystalline form 1, methanesulfonate salt crystalline form 1 and the compound of Formula I were put in watch glasses, and then spread into a thin layer about 3-5 mm in thickness.\nExperimental conditions: Under conventional (25° C., avoid light), high temperature (60° C., avoid light), high temperature and high humidity (40° C./75% RH, open and avoid light), light (25° C., 4500 lux±500 lux, open) and oxidation (40° C., container closure containing urea hydrogen peroxide, open and avoid light) conditions for 14 days.\nTest items: Sampled on 0th day and 14th day, the XRD, TGA and HPLC were tested and compared, the test results on the 14th day were show in Table 27."}, "NCI-H1581 cells": {"system": "NCI-H1581 cells", "assay": "cells", "conditions": "Homo sapiens, NCI-H1581, read-out: IC50 on NCI-H1581 cells", "method": "100 μl of CellTiter-Glo reagent was added to the assay plate and incubated for 10 min at room temperature to stabilize the luminescence signal."}, "SNU-16 cells": {"system": "SNU-16 cells", "assay": "Cell proliferation assay (CellTiter Glo)", "assay_type": "cell-based", "conditions": "Homo sapiens, growth inhibition in vitro, 96 hrs", "quoted_text": "Test method: the cells were added appropriate volume of whole medium to suspend. 100 μl of the cell suspension was added to a 96-well plate and placed in a CO2 incubator overnight. Tested compounds were dissolved in DMSO and subjected to a 3-fold gradient dilution for a total of 10 concentrations. Tested compound and DMSO reference materials were transferred to the corresponding wells containing 100 μl of medium respectively. Incubated in 5% CO2 at 37° C. for 96 hrs. 100 μl of CellTiter-Glo reagent was added to the assay plate and incubated for 10 min at room temperature to stabilize the luminescence signal. The IC50 value was calculated by recording the RLU (relative luminescence unit) using VICTOR TM X5 instrument."}, "[3]": {"assay": "Pharmacokinetic study of compound of Formula I and maleate salt crystalline form 1 (Example 22)", "assay_type": "in vivo", "conditions": "male, rat, plasma, SD rats, oral, 10 mg/kg, 10% DMSO/10% Solutol/80% Water", "source_text": "Drugs and reagents: 6-(2-chloro-3,5-dimethoxyphenyl)-N-(4-(4-morpholinopiperidin-1-yl)phenyl)-[1,2,4]triazolo[4′, 3′:1,6]pyrido[2,3-d]pyrimidin-2-amine (compound of Formula I), and maleate salt crystalline form 1 of the compound of Formula I used in this study were grounded to fine particles. The material content (purity) was not less than 99.0%.\nExperimental animals: SD rats were randomly divided into the compound of Formula I group and maleate salt crystalline form 1 group, each group including three male rats.\nPharmaceutical preparation: each compound was prepared into a clear solution in 10% DMSO/10% Solutol/80% Water solution, the final concentration of each compound was 1 mg/mL.\nAdministration and sample collection: each suspension was orally administered to fasted SD rats with a dose volume of 10 mL/kg and an administration dose of 10 mg/kg. The blood samples were collected in EDTA-K pre-anticoagulantion tubes before administration (0 h) and at 0.25 h, 0.5 h, 1 h, 2 h, 4 h, 7 h and 24 h after administration. The plasma was separated from the samples by centrifugation at 4000 rpm for 10 minutes at 4° C. The plasma was collected and stored at −80° C. for analysis.\nThe samples were analyzed by AB4000 API LC/MS combined with HPLC. Under liquid chromatography conditions, a phenomenex C18 2.6 u (50×2.1 mm) column was used as the stationary phase, acetonitrile-water and 0.1% formic acid were used as the mobile phase, and the injection volume was 10 μL."}, "[4]": {"assay": "Pharmacokinetic study of compound of Formula I and salt forms (Example 23)", "assay_type": "in vivo", "conditions": "male, rat, plasma, SD rats, oral, 10 mg/kg, prepared in purified water 0.5 mg/mL", "from_the_text": "Drugs and reagents: 6-(2-chloro-3,5-dimethoxyphenyl)-N-(4-(4-morpholinopiperidin-1-yl)phenyl)-[1,2,4]triazolo[4′,3′:1,6]pyrido[2,3-d]pyrimidin-2-amine (compound of Formula I) and salt forms thereof which include malate salt crystalline form, tartrate salt crystalline form, phosphate salt crystalline form, methanesulfonate salt crystalline form, hydrochloride salt crystalline form, fumarate salt crystalline form, citrate salt crystalline form, besylate salt crystalline form used in this study were ground to fine particles.\nExperimental animals: SD rats were randomly divided into the compound of Formula I group and each salt crystalline form of the compound of Formula I group, each group including three male rats.\nPharmaceutical preparation: each compound was prepared in purified water, wherein, the mesylate salt crystalline form, hydrochloride salt crystalline form and besylate salt crystalline form were prepared into a clear solution, the malate salt crystalline form, tartrate salt crystalline form, phosphate salt crystalline form, fumarate salt crystalline form, citrate salt crystalline form and sulfate salt crystalline form were prepared into a suspension, and final concentration of each compound was 0.5 mg/mL. […]\nThe samples were analyzed by AB4000 API LC/MS combined with HPLC. […]"}, "FGFR2": {"biological_target": "FGFR2 (Homo sapiens, UniProt P21802)", "sequence (P21802 22-821, species assumed)": "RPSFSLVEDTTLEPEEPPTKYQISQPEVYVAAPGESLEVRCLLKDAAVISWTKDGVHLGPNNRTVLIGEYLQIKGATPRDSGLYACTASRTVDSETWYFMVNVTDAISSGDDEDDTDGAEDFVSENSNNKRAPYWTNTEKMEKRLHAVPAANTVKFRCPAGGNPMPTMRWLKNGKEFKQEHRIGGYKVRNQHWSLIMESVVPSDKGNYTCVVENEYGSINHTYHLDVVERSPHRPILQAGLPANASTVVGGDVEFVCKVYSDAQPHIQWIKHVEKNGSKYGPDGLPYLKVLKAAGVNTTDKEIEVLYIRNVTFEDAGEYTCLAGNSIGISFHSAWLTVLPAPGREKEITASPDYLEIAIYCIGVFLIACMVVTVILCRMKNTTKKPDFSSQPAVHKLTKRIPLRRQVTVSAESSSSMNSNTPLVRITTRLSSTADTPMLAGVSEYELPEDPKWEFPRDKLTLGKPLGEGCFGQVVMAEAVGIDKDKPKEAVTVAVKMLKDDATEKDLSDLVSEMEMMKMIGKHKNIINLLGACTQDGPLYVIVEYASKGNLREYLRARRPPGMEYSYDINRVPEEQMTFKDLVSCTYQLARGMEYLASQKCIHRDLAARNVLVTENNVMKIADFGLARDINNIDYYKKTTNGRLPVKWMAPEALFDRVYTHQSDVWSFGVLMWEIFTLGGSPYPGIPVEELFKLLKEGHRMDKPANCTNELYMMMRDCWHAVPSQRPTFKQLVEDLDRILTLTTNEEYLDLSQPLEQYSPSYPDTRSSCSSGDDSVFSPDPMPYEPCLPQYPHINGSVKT", "assay": "Kinase assay (mobility shift assay)", "from_the_text": "(§1) Prepare compounds: dilute test compounds to specific concentration using 100% DMSO"}, "FGFR3": {"biological_target": "FGFR3 (Homo sapiens, UniProt P22607)", "sequence (P22607 23-806, species assumed)": "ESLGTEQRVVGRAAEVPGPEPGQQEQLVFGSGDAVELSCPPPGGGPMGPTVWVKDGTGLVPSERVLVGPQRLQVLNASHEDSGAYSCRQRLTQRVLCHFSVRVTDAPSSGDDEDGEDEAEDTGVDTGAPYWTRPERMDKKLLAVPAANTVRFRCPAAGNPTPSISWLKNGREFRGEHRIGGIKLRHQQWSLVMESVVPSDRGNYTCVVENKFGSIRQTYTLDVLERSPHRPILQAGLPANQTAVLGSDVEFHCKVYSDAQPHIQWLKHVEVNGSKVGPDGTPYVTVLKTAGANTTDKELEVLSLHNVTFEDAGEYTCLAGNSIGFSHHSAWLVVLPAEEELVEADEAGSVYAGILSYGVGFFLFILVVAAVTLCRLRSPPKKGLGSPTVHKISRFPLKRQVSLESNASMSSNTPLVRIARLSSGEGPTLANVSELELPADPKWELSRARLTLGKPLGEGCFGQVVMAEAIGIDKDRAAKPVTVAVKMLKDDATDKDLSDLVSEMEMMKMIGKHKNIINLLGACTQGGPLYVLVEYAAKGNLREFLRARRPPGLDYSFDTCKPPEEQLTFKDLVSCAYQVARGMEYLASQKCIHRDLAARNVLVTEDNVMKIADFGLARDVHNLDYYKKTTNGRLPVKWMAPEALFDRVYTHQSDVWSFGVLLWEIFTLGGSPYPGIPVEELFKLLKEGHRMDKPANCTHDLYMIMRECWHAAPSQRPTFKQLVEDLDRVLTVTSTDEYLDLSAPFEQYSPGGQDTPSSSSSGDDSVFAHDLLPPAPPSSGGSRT", "assay": "Kinase assay (mobility shift assay)", "from_the_text": "as §1"}, "FGFR4": {"biological_target": "FGFR4 (Homo sapiens, UniProt P22455)", "sequence (P22455 22-802, species assumed)": "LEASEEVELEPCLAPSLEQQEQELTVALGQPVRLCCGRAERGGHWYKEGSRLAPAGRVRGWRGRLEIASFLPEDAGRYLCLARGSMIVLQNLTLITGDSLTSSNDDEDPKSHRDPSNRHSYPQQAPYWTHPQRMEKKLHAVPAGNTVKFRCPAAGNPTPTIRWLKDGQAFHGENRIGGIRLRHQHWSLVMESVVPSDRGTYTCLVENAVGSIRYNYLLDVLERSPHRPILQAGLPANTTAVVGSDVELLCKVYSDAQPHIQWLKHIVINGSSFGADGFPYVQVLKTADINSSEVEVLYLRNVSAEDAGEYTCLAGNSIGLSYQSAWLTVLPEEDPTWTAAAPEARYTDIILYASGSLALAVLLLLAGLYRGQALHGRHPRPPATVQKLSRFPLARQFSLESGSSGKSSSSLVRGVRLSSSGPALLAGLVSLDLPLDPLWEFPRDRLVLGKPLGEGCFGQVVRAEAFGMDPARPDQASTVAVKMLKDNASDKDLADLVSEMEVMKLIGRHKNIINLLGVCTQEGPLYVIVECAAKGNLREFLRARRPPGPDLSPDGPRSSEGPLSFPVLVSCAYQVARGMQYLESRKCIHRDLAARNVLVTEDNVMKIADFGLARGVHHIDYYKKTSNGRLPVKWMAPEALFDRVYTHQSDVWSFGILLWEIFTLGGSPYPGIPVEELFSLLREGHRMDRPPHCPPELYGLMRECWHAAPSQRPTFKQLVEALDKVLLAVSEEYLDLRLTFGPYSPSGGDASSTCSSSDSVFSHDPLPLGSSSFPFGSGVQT", "assay": "Kinase assay (mobility shift assay)", "from_the_text": "as §1"}, "[5]": {"conditions": "conventional (25° C., avoid light)"}, "[6]": {"conditions": "high temperature (60° C., avoid light)"}, "[7]": {"conditions": "high temperature and high humidity (40° C./75% RH)"}, "[8]": {"conditions": "oxidation (40° C., urea hydrogen peroxide)"}}}
{"smiles": "COc1cc(OC)c(Cl)c(-c2cc3cnc(Nc4ccc(N5CCC(N6CCOCC6)CC5)cc4)nc3n3cnnc23)c1", "note": "[compound of Formula I, 6-(2-chloro-3,5-dimethoxyphenyl)-N-(4-(4-morpholinopiperidin-1-yl)phenyl)-[1,2,4]triazolo[4′,3′:1,6]pyrido[2,3-d]pyrimidin-2-amine]", "values": [{"measurement": "water uptake", "setting": "[1]", "result": 15.3, "unit": "%"}, {"measurement": "Crystalline form (XRD)", "setting": "[2]; [5]", "result": "unchanged"}, {"measurement": "Decrease value of the main ingredient content (HPLC)", "setting": "[2]; [5]", "result": "<0.4", "unit": "%"}, {"measurement": "Weight loss (TGA)", "setting": "[2]; [5]", "result": "20%-22%"}, {"measurement": "Crystalline form (XRD)", "setting": "[2]; [6]", "result": "transformed"}, {"measurement": "Decrease value of the main ingredient content (HPLC)", "setting": "[2]; [6]", "result": 13.5, "unit": "%"}, {"measurement": "Weight loss (TGA)", "setting": "[2]; [6]", "result": "about 18%"}, {"measurement": "Decrease value of the main ingredient content (HPLC)", "setting": "[2]; [7]", "result": "<0.4", "unit": "%"}, {"measurement": "Weight loss (TGA)", "setting": "[2]; [7]", "result": "20%-22%"}, {"measurement": "Crystalline form (XRD)", "setting": "[2]; high temperature and high humidity (40° C./75% RH, open, avoid light)", "result": "decrease"}, {"measurement": "Weight loss (TGA)", "setting": "[2]; light (25° C., 4500 lux±500 lux)", "result": "20%-22%"}, {"measurement": "Crystalline form (XRD)", "setting": "[2]; light (25° C., 4500 lux±500 lux, open)", "result": "transformed"}, {"measurement": "Decrease value of the main ingredient content (HPLC)", "setting": "[2]; [8]", "result": 40.3, "unit": "%"}, {"measurement": "Weight loss (TGA)", "setting": "[2]; [8]", "result": "about 27%"}, {"measurement": "Crystalline form (XRD)", "setting": "[2]; oxidation (40° C., urea hydrogen peroxide, open, avoid light)", "result": "transformed"}, {"measurement": "stability of crystalline form (XRD, overall statement)", "setting": "[2]; 14 days, all conditions", "result": "relatively low"}, {"measurement": "IC50", "setting": "NCI-H1581 cells", "result": 2, "unit": "nM"}, {"measurement": "IC50", "setting": "SNU-16 cells", "result": "< 1", "unit": "nM"}, {"measurement": "AUC(0-inf)", "setting": "[3]", "result": 6520, "unit": "ng·h/mL"}, {"measurement": "Cmax", "setting": "[3]", "result": 443, "unit": "ng/mL"}, {"measurement": "Tmax", "setting": "[3]", "result": 6, "unit": "h"}, {"measurement": "half-life", "setting": "[3]", "result": 7.9, "unit": "h"}, {"measurement": "AUC(0-t)", "setting": "[3]; read-out: AUC(0-24)", "result": 5870, "unit": "ng·h/mL"}, {"measurement": "Cmax", "setting": "[4]", "result": 179, "unit": "ng/mL"}, {"measurement": "AUC(0-t)", "setting": "[4]; read-out: AUC(0-24)", "result": 786, "unit": "ng·h/mL"}, {"measurement": "IC50", "setting": "FGFR2", "result": 1.7, "unit": "nM"}, {"measurement": "IC50", "setting": "FGFR3", "result": 1.2, "unit": "nM"}, {"measurement": "IC50", "setting": "FGFR4", "result": 21, "unit": "nM"}]}
